Experimental data from ChEMBL document CHEMBL1201862, “PubChem BioAssay data set” (2004).
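Dose response: 5 concentrations. Exposure: 48 h. Format: 96-well plates. Endpoint: linear interpolation; highest concentration if not reached. The concentration for 50% growth inhibition is given as GI50.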 Calls of active or inactive are those of the source. Rule as the data show it: active = GI50 up to about 1.1 µM and inactive = higher.

Legend:
Test in all cases: inhibition of tumour cell growth, NCI panel, 48 h
[1] = tested on: 786-0
[2] = tested on: A498
[3] = tested on: A549
[4] = tested on: ACHN
[5] = tested on: CAKI-1
[6] = tested on: CCRF-CEM
[7] = tested on: COLO 205
[8] = tested on: DLD-1
[9] = tested on: DMS-114
[10] = tested on: DMS-273
[11] = tested on: EKVX
[12] = tested on: HCC 2998
[13] = tested on: HCT-116
[14] = tested on: HCT-15
[15] = tested on: HL-60
[16] = tested on: HOP-18
[17] = tested on: HOP-62
[18] = tested on: HOP-92
[19] = tested on: HT-29
[20] = tested on: IGROV-1
[21] = tested on: K562
[22] = tested on: KM-20L2
[23] = tested on: KM12
[24] = tested on: LXFL 529
[25] = tested on: M14
[26] = tested on: M19-MEL
[27] = tested on: MOLT-4
[28] = tested on: Malme-3M
[29] = tested on: NCI-H226
[30] = tested on: NCI-H23
[31] = tested on: NCI-H460
[32] = tested on: NCI-H522
[33] = tested on: OVCAR-3
[34] = tested on: OVCAR-4
[35] = tested on: OVCAR-5
[36] = tested on: OVCAR-8
[37] = tested on: RPMI-8226
[38] = tested on: RXF 393
[39] = tested on: RXF 631
[40] = tested on: SF-268
[41] = tested on: SF-295
[42] = tested on: SF-539
[43] = tested on: SK-MEL-28
[44] = tested on: SK-MEL-2
[45] = tested on: SK-MEL-5
[46] = tested on: SK-OV-3
[47] = tested on: SN12C
[48] = tested on: SNB-19
[49] = tested on: SNB-75
[50] = tested on: SNB-78
[51] = tested on: SR
[52] = tested on: SW-620
[53] = tested on: TK-10
[54] = tested on: U-251
[55] = tested on: UACC-257
[56] = tested on: UACC-62
[57] = tested on: UO-31
[58] = tested on: XF498
[59] = tested on: LOX IMVI

NNC(=O)C(=O)N/N=C1/CCCC1C(=O)CCC(=O)Nc1ccc(Cl)cc1 (stereo not drawn)
GI50 [1]: > 100 µM (inactive)
GI50 [2]: > 100 µM (inactive)
GI50 [3]: > 100 µM (inactive)
GI50 [4]: 15.3 µM (inactive)
GI50 [5]: 20.5 µM (inactive)
GI50 [6]: > 100 µM (inactive)
GI50 [7]: > 100 µM (inactive)
GI50 [8]: > 100 µM (inactive)
GI50 [9]: 63 µM (inactive)
GI50 [10]: 37.3 µM (inactive)
GI50 [11]: > 100 µM (inactive)
GI50 [12]: > 100 µM (inactive)
GI50 [13]: > 100 µM (inactive)
GI50 [14]: 12.2 µM
GI50 [15]: > 100 µM (inactive)
GI50 [16]: > 100 µM (inactive)
GI50 [17]: > 100 µM (inactive)
GI50 [18]: > 100 µM (inactive)
GI50 [19]: > 100 µM (inactive)
GI50 [20]: > 100 µM (inactive)
GI50 [21]: 12.1 µM (inactive)
GI50 [22]: 6.04 µM (inactive)
GI50 [23]: > 100 µM (inactive)
GI50 [24]: 20.6 µM (inactive)
GI50 [25]: 52.2 µM (inactive)
GI50 [26]: 89.3 µM (inactive)
GI50 [27]: > 100 µM (inactive)
GI50 [28]: > 100 µM (inactive)
GI50 [29]: > 100 µM (inactive)
GI50 [30]: > 100 µM (inactive)
GI50 [31]: > 100 µM (inactive)
GI50 [32]: > 100 µM (inactive)
GI50 [33]: > 100 µM (inactive)
GI50 [34]: > 100 µM (inactive)
GI50 [35]: > 100 µM (inactive)
GI50 [36]: > 100 µM (inactive)
GI50 [37]: > 100 µM (inactive)
GI50 [38]: > 100 µM (inactive)
GI50 [39]: > 100 µM (inactive)
GI50 [40]: > 100 µM (inactive)
GI50 [41]: > 100 µM (inactive)
GI50 [42]: > 100 µM (inactive)
GI50 [43]: > 100 µM (inactive)
GI50 [44]: 24.4 µM (inactive)
GI50 [45]: > 100 µM (inactive)
GI50 [46]: > 100 µM (inactive)
GI50 [47]: > 100 µM (inactive)
GI50 [48]: > 100 µM (inactive)
GI50 [49]: > 100 µM (inactive)
GI50 [50]: > 100 µM (inactive)
GI50 [51]: > 100 µM (inactive)
GI50 [52]: > 100 µM (inactive)
GI50 [53]: > 100 µM (inactive)
GI50 [54]: > 100 µM (inactive)
GI50 [55]: > 100 µM (inactive)
GI50 [56]: 2.49 µM (inactive)
GI50 [57]: > 100 µM (inactive)
GI50 [58]: > 100 µM (inactive)

O=C(Nc1cccc(Cl)c1)c1cc2cc(/N=N/c3ccc(Br)cc3)ccc2oc1=O
GI50 [1]: 25.5 µM (inactive)
GI50 [2]: > 100 µM (inactive)
GI50 [3]: 90.6 µM (inactive)
GI50 [4]: 23.7 µM (inactive)
GI50 [5]: 23.2 µM (inactive)
GI50 [7]: 41.4 µM (inactive)
GI50 [8]: 40 µM (inactive)
GI50 [9]: 18.4 µM (inactive)
GI50 [10]: 21.3 µM (inactive)
GI50 [11]: 34.3 µM (inactive)
GI50 [12]: 25.8 µM (inactive)
GI50 [13]: 37.2 µM (inactive)
GI50 [14]: 10.2 µM
GI50 [16]: 63.2 µM (inactive)
GI50 [17]: > 100 µM (inactive)
GI50 [18]: 37.8 µM (inactive)
GI50 [19]: 66.7 µM (inactive)
GI50 [20]: 51.5 µM (inactive)
GI50 [21]: 6.19 µM (inactive)
GI50 [22]: 45.1 µM (inactive)
GI50 [23]: 19.2 µM (inactive)
GI50 [59]: 14.4 µM (inactive)
GI50 [24]: 14.1 µM (inactive)
GI50 [25]: 22.3 µM (inactive)
GI50 [26]: > 10 µM (inactive)
GI50 [27]: 14.9 µM (inactive)
GI50 [28]: > 100 µM (inactive)
GI50 [30]: 22.6 µM (inactive)
GI50 [31]: 36 µM (inactive)
GI50 [32]: 49.4 µM (inactive)
GI50 [33]: 22.8 µM (inactive)
GI50 [34]: 27.7 µM (inactive)
GI50 [35]: 31 µM (inactive)
GI50 [36]: 58.7 µM (inactive)
GI50 [37]: 33.2 µM (inactive)
GI50 [38]: 16.1 µM (inactive)
GI50 [39]: 68.1 µM (inactive)
GI50 [40]: 14.6 µM (inactive)
GI50 [41]: 42 µM (inactive)
GI50 [42]: 56.2 µM (inactive)
GI50 [43]: 47.8 µM (inactive)
GI50 [44]: 12.9 µM (inactive)
GI50 [45]: 36.8 µM (inactive)
GI50 [46]: 51.2 µM (inactive)
GI50 [47]: 32.1 µM (inactive)
GI50 [48]: 25.1 µM (inactive)
GI50 [49]: 37 µM (inactive)
GI50 [50]: 52.8 µM (inactive)
GI50 [52]: 29.3 µM (inactive)
GI50 [53]: 51.1 µM (inactive)
GI50 [54]: 26.7 µM (inactive)
GI50 [55]: 33.3 µM (inactive)
GI50 [56]: 14.1 µM (inactive)
GI50 [57]: 14 µM (inactive)
GI50 [58]: 46.8 µM (inactive)

c1ccc2c(c1)N=C(c1cccc3ccccc13)CC(c1ccc3c(c1)OCO3)S2 (stereo not drawn)
GI50 [1]: > 100 µM (inactive)
GI50 [2]: 49 µM (inactive)
GI50 [3]: > 100 µM (inactive)
GI50 [4]: > 100 µM (inactive)
GI50 [5]: > 100 µM (inactive)
GI50 [6]: > 100 µM (inactive)
GI50 [7]: > 100 µM (inactive)
GI50 [8]: > 100 µM (inactive)
GI50 [10]: > 100 µM (inactive)
GI50 [11]: > 100 µM (inactive)
GI50 [12]: > 100 µM (inactive)
GI50 [13]: > 100 µM (inactive)
GI50 [15]: > 100 µM (inactive)
GI50 [16]: > 100 µM (inactive)
GI50 [17]: > 100 µM (inactive)
GI50 [19]: > 100 µM (inactive)
GI50 [20]: > 100 µM (inactive)
GI50 [21]: > 100 µM (inactive)
GI50 [22]: > 100 µM (inactive)
GI50 [23]: > 100 µM (inactive)
GI50 [59]: > 100 µM (inactive)
GI50 [24]: > 100 µM (inactive)
GI50 [25]: 25.4 µM (inactive)
GI50 [26]: > 100 µM (inactive)
GI50 [27]: > 100 µM (inactive)
GI50 [28]: 70.6 µM (inactive)
GI50 [29]: > 100 µM (inactive)
GI50 [30]: > 100 µM (inactive)
GI50 [31]: > 100 µM (inactive)
GI50 [32]: > 100 µM (inactive)
GI50 [33]: > 100 µM (inactive)
GI50 [34]: > 100 µM (inactive)
GI50 [35]: > 100 µM (inactive)
GI50 [36]: > 100 µM (inactive)
GI50 [38]: > 100 µM (inactive)
GI50 [39]: > 100 µM (inactive)
GI50 [40]: > 100 µM (inactive)
GI50 [41]: 53.6 µM (inactive)
GI50 [42]: > 100 µM (inactive)
GI50 [43]: > 10 µM (inactive)
GI50 [44]: > 100 µM (inactive)
GI50 [45]: > 100 µM (inactive)
GI50 [46]: > 100 µM (inactive)
GI50 [47]: > 100 µM (inactive)
GI50 [48]: > 100 µM (inactive)
GI50 [49]: > 100 µM (inactive)
GI50 [50]: > 100 µM (inactive)
GI50 [51]: > 100 µM (inactive)
GI50 [52]: > 100 µM (inactive)
GI50 [53]: > 100 µM (inactive)
GI50 [54]: 73.3 µM (inactive)
GI50 [55]: > 100 µM (inactive)
GI50 [56]: > 100 µM (inactive)
GI50 [57]: > 100 µM (inactive)
GI50 [58]: > 100 µM (inactive)
